{"source": "paper PMC9688475", "about": "“Identification and Analysis of Small Molecule Inhibitors of CRISPR-Cas9 in Human Cells” (Cells, 2022)", "key": {"[1]": {"test_system": "LbCas12a", "assay": "LbCas12a in vitro cleavage assay", "assay_type": "biochemical", "settings": "100 μM", "procedure": "In vitro cleavage experiments were performed using purified recombinant LbCas12a proteins similar to SpCas9 cleavage assays. LbCas12a proteins (50 nM), crRNA (50 nM), and different concentrations of the inhibitor compounds were mixed in NEBuffer 2 (New England Biolabs). After incubation at room temperature for 10 min, ScaI-linearized pUC19 DNA was added to a final concentration of 1.52 nM. The solution was vortex mixed and centrifuged, then incubated for 45 min in a water bath at 37 °C. The reaction was quenched with 0.5 μL proteinase K for 15 min at 56 °C. The samples were mixed with DNA loading buffers and resolved by 1.2% TAE agarose gel electrophoresis. Gel bands were visualized by Chemidoc XRS plus system (Bio-Rad, Hercules, CA, USA)."}, "[2]": {"target": "T1, SpCas9–gRNA complex (Streptococcus pyogenes serotype M1, UniProt Q99ZW2)", "T1 construct": "His6 (N); TEV site (N); made in house; host or cells: E. coli BL21 Star (DE3)", "T1 sequence (Q99ZW2 whole entry, one chain of several)": "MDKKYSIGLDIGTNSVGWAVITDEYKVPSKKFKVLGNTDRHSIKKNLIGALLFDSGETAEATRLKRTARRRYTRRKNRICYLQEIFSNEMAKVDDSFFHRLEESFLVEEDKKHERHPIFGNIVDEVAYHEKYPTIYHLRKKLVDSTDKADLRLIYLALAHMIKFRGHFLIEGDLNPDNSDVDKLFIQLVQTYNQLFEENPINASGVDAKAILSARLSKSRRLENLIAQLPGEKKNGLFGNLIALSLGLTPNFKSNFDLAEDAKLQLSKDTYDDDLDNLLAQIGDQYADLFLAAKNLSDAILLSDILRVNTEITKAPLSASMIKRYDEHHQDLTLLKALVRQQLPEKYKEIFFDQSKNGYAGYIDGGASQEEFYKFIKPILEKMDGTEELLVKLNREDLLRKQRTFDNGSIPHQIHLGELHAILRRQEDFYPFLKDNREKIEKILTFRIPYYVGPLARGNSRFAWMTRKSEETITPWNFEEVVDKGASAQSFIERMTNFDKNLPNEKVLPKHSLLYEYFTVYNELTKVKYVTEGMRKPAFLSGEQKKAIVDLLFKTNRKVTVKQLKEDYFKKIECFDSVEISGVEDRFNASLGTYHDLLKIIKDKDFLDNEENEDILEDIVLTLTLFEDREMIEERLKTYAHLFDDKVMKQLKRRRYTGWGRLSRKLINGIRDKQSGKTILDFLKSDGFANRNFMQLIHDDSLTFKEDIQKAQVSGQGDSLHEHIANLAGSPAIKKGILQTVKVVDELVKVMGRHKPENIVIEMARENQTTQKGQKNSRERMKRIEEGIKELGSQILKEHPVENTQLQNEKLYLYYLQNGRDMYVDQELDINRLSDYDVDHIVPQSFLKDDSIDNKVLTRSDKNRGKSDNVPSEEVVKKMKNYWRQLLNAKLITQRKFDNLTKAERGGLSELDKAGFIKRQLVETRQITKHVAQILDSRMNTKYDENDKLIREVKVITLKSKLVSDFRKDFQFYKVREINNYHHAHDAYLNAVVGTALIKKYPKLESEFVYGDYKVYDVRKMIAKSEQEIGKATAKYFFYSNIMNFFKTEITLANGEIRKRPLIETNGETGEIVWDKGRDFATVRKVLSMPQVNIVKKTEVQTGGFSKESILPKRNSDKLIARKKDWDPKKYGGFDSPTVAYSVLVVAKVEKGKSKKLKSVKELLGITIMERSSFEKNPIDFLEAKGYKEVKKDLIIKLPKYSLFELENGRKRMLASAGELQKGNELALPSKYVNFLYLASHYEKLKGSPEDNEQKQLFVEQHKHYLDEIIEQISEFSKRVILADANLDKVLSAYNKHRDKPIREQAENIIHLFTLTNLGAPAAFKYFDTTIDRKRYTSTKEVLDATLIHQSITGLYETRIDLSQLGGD", "assay": "Competitive fluorescence polarization assay, SpCas9-gRNA", "assay_type": "binding"}, "[3]": {"test_system": "dSpCas9–gRNA complex", "assay": "Competitive fluorescence polarization assay, dSpCas9-gRNA", "assay_type": "binding, Streptococcus pyogenes", "settings": "FITC-DNA 25 nM, compounds 50 μM, PAM-DNA 1.25 μM"}, "[4]": {"target": "T1, SpCas9–gRNA complex", "assay": "Microscale thermophoresis (MST), SpCas9-gRNA RNP", "assay_type": "binding", "settings": "SpCas9-EGFP/gRNA RNP (1:1) 200 nM, 25 °C", "procedure": "(§1) The MST method was carried out similar to the previous report. The binding ability of the compounds to SpCas9 in different states was tested by Monolith NT.115 (NanoTemper Technologies, Munich, Germany). The SpCas9-EGFP fusion protein or the SpCas9-EGFP/gRNA RNP complex (protein: gRNA = 1:1) was diluted with a binding buffer (50 mM Tris-HCl, pH 7.4, 150 mM NaCl, 0.05% Tween-20, and 10 mM MgCl2) to make a final concentration of 200 nM. The protein diluent was mixed with the compound diluent in equal volume. The mixture was kept at room temperature for 10 min. Then the sample was loaded into the NanoTemper standard capillaries. All experiments were carried out at 25 °C, 80% MST power, and 50% LED power. The data were analyzed with the NanoTemper MO affinity analysis software (NanoTemper Technologies, Munich, Germany). The raw data were then exported and plotted with Origin 2020b (OriginLab, Northampton, MA, USA)."}, "[5]": {"test_system": "Flag-tagged SpCas9 protein expression", "settings": "western blot, GAPDH loading control, concentrations tested", "experimental": "(§3) The reporter 293T cells were seeded into 96-well plates at a density of 10,000 cells per well and cultured overnight before the addition of DMSO alone or various compounds (in DMSO solution) at appropriate concentrations (0.125–100 μM) with or without 2 μg/mL doxycycline for an additional 72 h of incubation. The cells were then harvested for analysis with the CytoFLEX flow cytometer (Beckman Coulter, Brea, CA, USA) or analyzed by western blot with antibodies as indicated. […] The inhibiting efficiency in reporter 293T cells was calculated using the following equation: E’ = (P2 − P1)/(P0 − P1) × 100%, where E’ is the inhibiting efficiency in reporter 293T cells, and P0, P1, and P2 are the GFP positive cell ratio of the uninduced group, Dox and DMSO treated control group, and Dox and compound treated group, respectively."}, "[6]": {"test_system": "FITC-DNA", "settings": "compared with DMSO, no SpCas9", "experimental": "The fluorescence polarization experiment was as previously reported [33]. […] The DNA was labeled at the 3′ end with fluorescein isothiocyanate (FITC). The other one is complementary to the first 58 bases of the previous oligonucleotide. These two oligonucleotides were annealed to generate the target DNA substrate labeled with fluorescent molecules (FITC-DNA). Unlabeled DNA (PAM-DNA) was considered competitive positive controls. Experiments were performed on black 384-well plates (Corning, New York, NY, USA). 50 nM SpCas9-gRNA (1:1) and different concentrations of the compound were added to the reaction buffer (50 mM Tris-HCl, pH 8.0, 0.1 M NaCl, 10 mM MgCl2, and 1 mM DTT). PAM-DNA (1250 nM) was used as a positive control. The mixture was then incubated at room temperature for 30 min, and FITC-DNA was added to the final concentration of 25 nM in each well. Fluorescence polarization signals were measured using a multilabel reader (Victor X5, PerkinElmer, Waltham, MA, USA) within 10 min. These values were plotted using GraphPad Prism 6.0 software (San Diego, CA, USA)."}, "[7]": {"target": "T2, SpCas9 (Streptococcus pyogenes serotype M1, UniProt Q99ZW2)", "T2 sequence (Q99ZW2 whole entry)": "as the sequence (Q99ZW2 whole entry, one chain of several) above", "assay": "On- and off-target editing at endogenous loci in iCas9 U2OS cells (deep sequencing)", "assay_type": "cell-based", "parameters": "expressed in transfected cells", "settings": "+Dox", "procedure": "The iCas9-expressing U2OS cells were first through lentiviral infection. The cells were cultured with 1 μg/mL puromycin until all cells in the negative control group were dead. Monoclonal cells were then isolated and verified. Lentiviruses encoding appropriate gRNAs were used to infect the iCas9 U2OS cells, which were further selected with 10 μg/mL Blasticidin S HCL (Gibco, New York, NY, USA) until all cells in the control group were dead. The iCas9/gRNA cells were then plated in 12-well plates (Thermo Fisher Scientific) at ~40% confluence per well at 24 h before the doxycycline (2 μg/mL) addition. An individual inhibitor compound was also added at this point at the appropriate concentrations. DMSO alone served as the control. Cells cultured without doxycycline served as the SpCas9 cleavage control. After 24 h, cells were collected for genomic DNA extraction using the AxyPrep blood genomic DNA miniprep kit (Axygen, New York, NY, USA). Sequences surrounding the on- and off-target sites were amplified using barcoded primers (Supplementary Table S3) and the KOD PCR kit (Toyobo, Japan) to generate the sequencing libraries. Single-read sequencing of the pooled samples were performed on the 150 Hiseq 2000 (Illumina, San Diego, CA, USA). Each experiment was repeated twice. MATLAB was used to split the sequencing file and CRISPResso2 [38] was used to analyze the frequency of indels."}, "[8]": {"target": "T2, SpCas9", "assay": "Microscale thermophoresis (MST), SpCas9", "assay_type": "binding", "parameters": "His6 (N); TEV site (N); made in house; host or cells: E. coli BL21 Star (DE3)", "settings": "SpCas9–EGFP fusion protein 200 nM, 25 °C", "procedure": "as §1"}, "[9]": {"target": "T2, SpCas9", "assay": "Inhibition of SpCas9 nuclease activity in EGFP/iCas9/gRNA-EGFP reporter 293T cells (flow cytometry)", "assay_type": "cell-based", "parameters": "expressed in transfected cells; host or cells: H2AX-EGFP HEK293T cells, lentiviral transduction, doxycycline-induced", "excerpt": "The H2AX-EGFP 293T cell line was first generated using the previously reported MMEJ-mediated CRIS-PITCh system. Briefly, we cloned two gRNAs (Supplementary Table S3) that respectively target H2AX gene and the PITCh vector into the px330 plasmid (Addgene, #42230). The PITCh vector contains a pair of 20-bp homologous sequences targeting the upstream and downstream regions of the H2AX gRNA cleavage site, and the SFB-EGFP expression cassette. The three plasmids were co-transfected into 293T cells at an equimolar ratio. GFP-positive cells were sorted by FACS and individually expanded to isolate single clones for genomic DNA extraction and PCR verification of successful knock-in (KI) of the SFB-EGFP cassette into 5′-end of first exon of the H2AX gene. The selected H2AX-EGFP 293T cell clone was subsequently infected with lentiviruses encoding tetracycline-inducible SpCas9 (iCas9). After drug selection, individual clones were again expanded and verified for inducible Cas9 expression. The selected clone was subsequently infected with lentivirus encoding a gRNA that targets EGFP. Puromycin-resistant clones ([…], Thermo Fisher Scientific) were then isolated after >7 days for further analysis."}, "[10]": {"test_system": "Streptococcus pyogenes Cas9 (SpCas9)", "settings": "inhibits SpCas9 by blocking its binding to DNA; ref [33]; cited from earlier work"}, "[11]": {"test_system": "XbaI", "assay": "XbaI in vitro cleavage assay", "assay_type": "biochemical", "settings": "compound 200 μM", "procedure": "(§2) In vitro cleavage experiments used commercial restriction enzymes (Thermo Fisher Scientific). The restriction enzyme NotI or XbaI (0.1 μL) was mixed with the compounds in a FastDigest buffer (Thermo Fisher Scientific). It was then incubated at room temperature for 10 min, and an ApaI-linearized px458 plasmid was added and reacted at 37 °C for 15 min. The samples were mixed with a DNA loading buffer. The cleavage products were electrophoresed on 1% TAE agarose gel and imaged using a Bio-Rad gel imager."}, "[12]": {"test_system": "NotI", "assay": "NotI in vitro cleavage assay", "assay_type": "biochemical", "settings": "compound 200 μM", "procedure": "as §2"}, "[13]": {"test_system": "EGFP expression in uninduced reporter 293T cells", "assay": "EGFP expression in uninduced reporter 293T cells", "assay_type": "cell-based, human", "settings": "100 μM, reporter cells, no Dox", "experimental": "as §3"}, "[14]": {"target": "T2, SpCas9", "assay": "SpCas9 in vitro DNA cleavage assay", "assay_type": "biochemical", "parameters": "His6 (N); TEV site (N); made in house; host or cells: E. coli BL21 Star (DE3)", "settings": "compound 200 μM; SpCas9–gRNA 58.8 nM; linearized plasmid 3.48 nM", "procedure": "The assay was carried out in NEBuffer 3 (New England Biolabs, Ipswich, MA, USA). First, 19.2 μL of the SpCas9–gRNA (58.8 nM) mixture was incubated with 2.4 μL of various compounds (dissolved in DMSO) at desired concentrations (0.1–2 mM) at room temperature for 10 min. Then, 2.4 μL of 3.48 nM ApaI-linearized px458 plasmid was added for further incubation at 37 °C for 60 min. The reaction was terminated by adding 0.5 μL Proteinase K (20 mg/mL) (Invitrogen) and incubation at 55 °C for 15 min. The reaction products were resolved on a 0.7% TAE agarose gel, stained with Gel Red (Biotium, Fremont, CA, USA). Then the products were visualized by Chemidoc XRS plus system (Bio-Rad, Hercules, CA, USA), and band intensities were quantified using ImageJ software (National Institutes of Health developed; Bethesda, MD, USA). The inhibition efficiency in the cleavage assays was calculated using the following equation: E = (C1 − C2)/C1 × 100%, where E is the inhibition efficiency, and C1 and C2 are the cleavage rate of the DMSO group and compound treated group, respectively.\nThe cleavage rate was calculated using the following equation:C = (B1 + B2)/(B0 + B1 + B2) × 100%, where C is the cleavage rate, B0, B1, and B2 are the band intensities of uncleaved products, upper cleaved products, and lower cleaved products, respectively."}}, "note": "Where “and” joins values, the source holds several entries; their conditions need not be identical. Identical values can stand only once."}
{"compound": "CC1(C)CC(=NNc2ccc([N+](=O)[O-])cc2[N+](=O)[O-])CC(C)(C)N1C(=O)COCC(=O)N1C(C)(C)CC(=NNc2ccc([N+](=O)[O-])cc2[N+](=O)[O-])CC1(C)C", "note": "[SP2]", "values": [{"measurement": "inhibition of LbCas12a-mediated cleavage", "setting": "[1]", "result": "no inhibition"}, {"measurement": "change of FP signals of SpCas9-gRNA and DNA", "setting": "[2]; 50 μM", "result": "< 5", "unit": "%"}, {"measurement": "Fluorescence Polarization (mP)", "setting": "[2]; SpCas9+gRNA 50 nM, FITC-DNA 25 nM, compounds 50 μM, PAM-DNA 1.25 μM", "result": 160.5, "unit": "mP"}, {"measurement": "Fluorescence Polarization (mP)", "setting": "[3]", "result": 209.5, "unit": "mP"}, {"measurement": "EC50", "setting": "[4]", "result": "5.63 ± 3.65", "unit": "µM"}, {"measurement": "effect on SpCas9 expression", "setting": "[5]", "result": "Neither compound appeared to affect SpCas9 expression"}, {"measurement": "effect on fluorescence polarization value of fluorescence-labeled DNA", "setting": "[6]", "result": "did not affect"}, {"measurement": "reduction of SpCas9 off-target editing, EMX1-2", "setting": "[7]; 2.5 μM", "result": 63.3, "unit": "%"}, {"measurement": "Indel (%) EMX1-1 Off-target", "setting": "[7]; 24 h, SP2 2.5 μM, SP24 0.5 μM", "result": 21.7, "unit": "%"}, {"measurement": "Indel (%) EMX1-1 On-target", "setting": "[7]; 24 h, SP2 2.5 μM, SP24 0.5 μM", "result": 42.2, "unit": "%"}, {"measurement": "Indel (%) EMX1-2 Off-target", "setting": "[7]; 24 h, SP2 2.5 μM, SP24 0.5 μM", "result": 1.1, "unit": "%"}, {"measurement": "Indel (%) EMX1-2 On-target", "setting": "[7]; 24 h, SP2 2.5 μM, SP24 0.5 μM", "result": "~ 18% and 17.8%"}, {"measurement": "Indel (%) ZSCAN2 Off-target", "setting": "[7]; 24 h, SP2 2.5 μM, SP24 0.5 μM", "result": 6.7, "unit": "%"}, {"measurement": "Indel (%) ZSCAN2 On-target", "setting": "[7]; 24 h, SP2 2.5 μM, SP24 0.5 μM", "result": 32.2, "unit": "%"}, {"measurement": "ratio of on-target vs. off-target indels, EMX1-1", "setting": "[7]; 24 h, SP2 2.5 μM, SP24 0.5 μM", "result": 1.94, "unit": "x"}, {"measurement": "ratio of on-target vs. off-target indels, EMX1-2", "setting": "[7]; 24 h, SP2 2.5 μM, SP24 0.5 μM", "result": 16.18, "unit": "x"}, {"measurement": "ratio of on-target vs. off-target indels, ZSCAN2", "setting": "[7]; 24 h, SP2 2.5 μM, SP24 0.5 μM", "result": 4.81, "unit": "x"}, {"measurement": "Indel (%) VEGFA-3 Off-target", "setting": "[7]; 24 h, SP2 2.5 μM, SP24 1 μM", "result": 1.4, "unit": "%"}, {"measurement": "Indel (%) VEGFA-3 On-target", "setting": "[7]; 24 h, SP2 2.5 μM, SP24 1 μM", "result": 35.2, "unit": "%"}, {"measurement": "ratio of on-target vs. off-target indels, VEGFA-3", "setting": "[7]; 24 h, SP2 2.5 μM, SP24 1 μM", "result": 25.14, "unit": "x"}, {"measurement": "EC50", "setting": "[8]", "result": "44.2 ± 35.4", "unit": "µM"}, {"measurement": "SpCas9 inhibition in reporter cells", "setting": "[9]; 10 μM, Dox 2 μg/mL, 72 h", "result": 50, "unit": "%"}, {"measurement": "inhibitory activity in reporter cells (in words)", "setting": "[9]; from 40 to 2 μM", "result": "changed little"}, {"measurement": "EC50", "setting": "[9]; titration, Dox 2 μg/mL, 72 h, flow cytometry", "result": 5.07, "unit": "µM"}]}
{"compound": "BRD0539", "values": [{"measurement": "IC50", "setting": "[10]", "result": 22, "unit": "µM"}]}
{"compound": "1-(2-(4-nitrophenyl) hydrazono)-4-bromo-acetophenone [C12]", "values": [{"measurement": "activity of XbaI", "setting": "[11]", "result": "not affected"}, {"measurement": "activity of NotI", "setting": "[12]", "result": "not affected"}, {"measurement": "effect on EGFP expression in the absence of Dox induction", "setting": "[13]", "result": "no effects"}, {"measurement": "inhibition rate, in vitro SpCas9 cleavage", "setting": "[14]", "result": 84, "unit": "%"}, {"measurement": "efficiency of SpCas9 inhibition in reporter cells", "setting": "[9]; 100 μM, Dox 2 μg/mL, 72 h", "result": 17.1, "unit": "%"}]}
